# Measurements taken from patent US10723751B2 (priority 2013, dated 2020).
# Where two headings read alike, the source gives them in different places.
# What was measured:
# [1] = tested on: Kennel cough, Giardia and Isospora infections; assay: Treatment of Kennel cough, Giardia and Isospora infections in a dog
# [2] = tested on: Candida albicans; assay: Treatment of recurring Candida albicans vaginal yeast infection; format: in vivo, human
# Text: A volunteer 57 kg body weight with frequent recurring vaginal Candida albicans infection was diagnosed and treated by their gynecologist over a period of 15 years. The reccurrence frequency was 2-3 flare ups every year for the past 15 years. […] However, 3-6 months later the infection would again appear. Chlorhexidine wash was also tried to prevent recurrence to no effect.
# No flare-up has been detected for at least three years. No other treatment was used since there had been no recurrence.
# [3] = known substances; cited from earlier work
# [4] = tested on: herpes simplex labialis; assay: Treatment of herpes simplex labialis; format: in vivo, human
# Text: A volunteer, 54 kg suffered from recurring herpes outbreaks on the lip. The outbreaks happened about every two years and were associated with immune compromised conditions like stress, concurrent upper respiratory infection and menstrual cycles. The outbreaks last approximately 7-9 days and no spontaneous remission of an outbreak had occurred.
# The outbreaks always followed a predictable progression and included a tingling sensation, redness and swelling of about 5 mm area on upper right side middle of the lip and 2-4 days after the onset blisters appear that turns into a scab that last about 5 days. The only medicine that could slightly alter this course was Zovirax crema/acyclovir/if the treatment began at the first sign of an outbreak. No other medicine had any effect on alleviating symptoms. With the treatment of Zovirax the blister size smaller (about 4 mm in diameter) and the duration of the outbreak was shorter (to approximately 5 days).
# Topical and oral cyanogenic composition medications were applied simultaneously with no other medication.
# [5] = tested on: Pseudomonas Aeruginosa; assay: Aerobic Culture and Mic from ear swab
# [6] = tested on: bacterial pneumonia; assay: Treatment of bacterial pneumonia in a cat; format: in vivo; settings: before the cyanogenic composition
# [7] = cited from earlier work
# [8] = tested on: respiratory infection; assay: Treatment of therapy resistant respiratory infection in a cat; format: in vivo; settings: clavamox oral, five days later convenia injections
# Experimental: A two year old domestic short hair cat, six pounds, body weight, temp 102° F. emaciated cat came from a cat holding facility and was FIV and FELV negative. Its clinical symptoms: very severe wheezing respiration, very moist cough, frequent sneezing all day beginning 10 days previously. The cat had been treated in another hospital previously with antibiotics: first, clavamox oral/contains amoxicillin and with β-lactamase-inhibiting effect clavulanic acid known as for powerful, broad-spectrum antimicrobial activity. […] CBC chemistry blood work was performed. The only abnormality was a 40% increase in Monocytes above the highest normal, and mild anemia.
# [9] = Treatment of chronic suppurative prostatitis / prostate abscess in a dog; settings: in vivo
# Experimental: An eight year old Akita dog presented suffering from chronic, recurring prostatitis with typical clinical symptoms associated with the condition. […] This condition had worsened in the previous eight months, causing significant suffering by the pet and frustration to the dog's owner.
# In the second week the dose was adjusted to 5 mg/kg inj. twice/day. […] The treatment continued in the 3rd week with 2 mg/bw kg dose twice/day.
# [10] = tested on: Rhodococcus equi; assay: Antibiotic sensitivity testing of the foal's bacterial culture; format: cell-based
molecule,measurement,setting,value
CC[C@H]1OC(=O)[C@H](C)[C@@H](O[C@H]2C[C@@](C)(OC)[C@@H](O)[C@H](C)O2)[C@H](C)[C@@H](O[C@@H]2O[C@H](C)C[C@H](N(C)C)[C@H]2O)[C@](C)(O)C[C@@H](C)CN(C)[C@H](C)[C@@H](O)[C@]1(C)O [Azithromycin],outcome of previous treatment,"[1]; Azithromycin and Clavamox at therapeutic dose, about 2 weeks",the symptoms did not abate
"[H]/N=C(\N/C(=N/[H])NCCCCCCNC(=N)NC(=N)Nc1ccc(Cl)cc1)Nc1ccc(Cl)cc1 [Chlorhexidine wash, Chlorhexidine]",prevention of recurrence,[2]; in vivo,no effect
[Cl-].[Na+] [Table salt],LD50,[3],300 mg/kg
"Nc1nc2c(ncn2COCCO)c(=O)[nH]1 [Zovirax, acyclovir]",blister size in diameter,[4]; treatment begun at first sign of an outbreak,about 4 mm
same,duration of the outbreak,[4]; untreated approximately 7-9 days,about 5 days
NCC[C@H](O)C(=O)N[C@@H]1C[C@H](N)[C@@H](O[C@H]2O[C@H](CN)[C@@H](O)[C@H](O)[C@H]2O)[C@H](O)[C@H]1O[C@H]1O[C@H](CO)[C@@H](O)[C@H](N)[C@H]1O [amikacin],MIC,[5]; Pseudomonas aeruginosa,≤ 8 µg/mL
same,sensitive / resistant,[5]; ear swab isolate,S
CC1(C)S[C@@H]2[C@H](NC(=O)[C@H](N)c3ccc(O)cc3)C(=O)N2[C@H]1C(=O)O [amoxicillin],outcome of previous treatment,[6],slight improvement followed by a relapse
same,sensitive / resistant,[5]; ear swab isolate,R
CC1(C)S[C@@H]2[C@H](NC(=O)[C@H](N)c3ccccc3)C(=O)N2[C@H]1C(=O)O [ampicillin],sensitive / resistant,[5]; ear swab isolate,R
N#C[C@H](O[C@@H]1O[C@H](CO[C@@H]2O[C@H](CO)[C@@H](O)[C@H](O)[C@H]2O)[C@@H](O)[C@H](O)[C@H]1O)c1ccccc1 [amygdalin],LD50,[7]; literature,about 900 mg/body weight kg
same,LD 50 of oral amygdalin,"[7]; oral, scientific literature",400 to 900 mg/kg
CC(=O)Oc1ccccc1C(=O)O [aspirin],LD50,[3],200 to 1200 mg/kg
Cc1nnc(SCC2=C(C(=O)O)N3C(=O)[C@@H](NC(=O)Cn4cnnn4)[C@H]3SC2)s1 [cefazolin],sensitive / resistant,[5]; ear swab isolate,R
CO/N=C(/C(=O)N[C@@H]1C(=O)N2C(C(=O)O)=C([C@@H]3CCCO3)CS[C@H]12)c1csc(N)n1 [cefovecin],sensitive / resistant,[5]; ear swab isolate,R
CO[C@@]1(NC(=O)Cc2cccs2)C(=O)N2C(C(=O)O)=C(COC(N)=O)CS[C@@H]21 [cefoxitin],MIC,[5]; Pseudomonas aeruginosa,≥ 32 µg/mL
same,sensitive / resistant,[5]; ear swab isolate,R
COCC1=C(C(=O)O)N2C(=O)[C@@H](NC(=O)/C(=N\OC)c3csc(N)n3)[C@H]2SC1 [cefpodoxime],MIC,[5]; Pseudomonas aeruginosa,≥ 8 µg/mL
same,sensitive / resistant,[5]; ear swab isolate,R
CO/N=C(\C(=O)N[C@@H]1C(=O)N2C(C(=O)O)=C(CSC(=O)c3ccco3)CS[C@H]12)c1csc(N)n1 [ceftiofur],MIC,[5]; Pseudomonas aeruginosa,≥ 8 µg/mL
same,sensitive / resistant,[5]; ear swab isolate,R
CC1=C(C(=O)O)N2C(=O)[C@@H](NC(=O)[C@H](N)c3ccc(O)cc3)[C@H]2SC1 [cephadroxil],sensitive / resistant,[5]; ear swab isolate,R
CC1=C(C(=O)O)N2C(=O)[C@@H](NC(=O)[C@H](N)c3ccccc3)[C@H]2SC1 [cephalexin],sensitive / resistant,[5]; ear swab isolate,R
CO/N=C(/C(=O)N[C@@H]1C(=O)N2C(C(=O)[O-])=C([C@@H]3CCCO3)CS[C@H]12)c1csc(N)n1.[Na+] [convenia],outcome of previous antibiotic treatment,[8],the condition continued to worsen
CCN1CCN(c2cc3c(cc2F)c(=O)c(C(=O)O)cn3C2CC2)CC1 [enrofloxacin],outcome of previous antibiotic treatment,[9],"only temporary mild improvement, followed by a quick relapse"
same,MIC,[5]; Pseudomonas aeruginosa,≤ 0.5 µg/mL
same,sensitive / resistant,[5]; ear swab isolate,S
same,outcome of previous treatment,"[1]; switched to Enrofloxacin, Clavomox continued",the symptoms continued to worsen
CC[C@H]1OC(=O)[C@H](C)[C@@H](O[C@H]2C[C@@](C)(OC)[C@@H](O)[C@H](C)O2)[C@H](C)[C@@H](O[C@@H]2O[C@H](C)C[C@H](N(C)C)[C@H]2O)[C@](C)(O)C[C@@H](C)C(=O)[C@H](C)[C@@H](O)[C@]1(C)O [erythromycin],antibiotic sensitivity,[10],resistance
Clc1ccccc1C(c1ccccc1)(c1ccccc1)n1ccnc1 [lotrimazole],outcome of previous treatment,"[2]; oral capsule and cream 5-7 days, infection again after 3-6 months",good symptomatic response
CN1CCN(c2c(F)cc3c(=O)c(C(=O)O)cn4c3c2OCN4C)CC1 [marbofloxacin],MIC,[5]; Pseudomonas aeruginosa,≤ 1 µg/mL
same,sensitive / resistant,[5]; ear swab isolate,S
CO[C@H]1/C=C/O[C@@]2(C)Oc3c(C)c(O)c4c(O)c(c(/C=N/N5CCN(C)CC5)c(O)c4c3C2=O)NC(=O)/C(C)=C\C=C\[C@H](C)[C@H](O)[C@@H](C)[C@@H](O)[C@@H](C)[C@H](OC(C)=O)[C@@H]1C [rifampin],antibiotic sensitivity,[10],resistance
gentamicin,sensitive / resistant,[5]; ear swab isolate,S
same,MIC,"[5]; ear swab isolate, heavy growth",<= 2 ug/ml
